Experimental data reported in patent publication US20050031597A1, “Cells and improved method for preserving cells” (priority 2003, published 2005).

Assays:
platelets = assay: Stability of platelets during incubation (microscopy, flow cytometric analysis); type: cell-based, human
Description: The stability of the platelets during a 4 hours incubation period was studied using microscopy and flow cytometric analysis. […] No signs of microvesicle formation could be observed after 4 hours incubation, as can be judged by the stable relative proportion of microvesicle gated cells (less than 3%). The formation of microvesicles is usually considered as the first sign of platelet activation (Owners et al., Trans. Med. Rev., 8, 27-44, 1994). Characteristic antigens of platelet activation include: glycoprotein 53 (gp53, a lysosomal membrane marker), PECAM-1 (platelet endothelial cell adhesion molecule-1, an alpha granule constituent), and P-selection (an alpha granule membrane protein).

erythrocytic cells [1] = assay: Percent hemolysis of erythrocytic cells during loading or incubation; type: cell-based; details: for percent hemolysis: 800 mM trehalose, 100 mOsm ADSOL, 6.6 mM K-phosphate
Description: FIG. 9 graphically illustrates % hemolysis of loaded cells as a function of time (hours) of incubation in 300 mOsm PBS pH 7.2. The erythrocytic cells were loaded in 700 mM trehalose in 100 mOsm PBS pH 7.2 at 35° C. for 16 hours. After the loading step, the cells were incubated in 300 mOsm PBS pH 7.2 between 1 and 25 hours. This buffer was used for washing the loaded cells and it was important to determine the stability of the loaded cells when they were suspended in this buffer. Cell stability was assessed by measuring the percent hemolysis over the course of 25 hours. […] Between 7 and 25 hours, there was only a small change in the percent hemolysis (from about 25% to about 30%).
FIG. 10 graphically illustrates time course (incubation time, hours) of hemolysis(%) of trehalose-loaded cells as a function of the composition of the incubation buffer. Erythrocytic cells were loaded in 700 mM trehalose in 100 mOsm PBS pH 7.2 for 16 hours at 35° C. They were washed with 300 mOsm PBS pH 7.2 and were subsequently transferred to storage media with increasing trehalose concentrations (between 100 mM and 300 mM trehalose) added to 100 mOsm PBS pH 7.2. The percent hemolysis was measured over the course of 3 hours. […]
At 23° C., the percent hemolysis increases to 7% during 6 hours of incubation. At 37° C., between 10 and 12% hemolysis is observed during incubation of erythrocytic cells between 6 and 9 hours. […] Such intracellular concentration of trehalose provides high survival of erythrocytic cells after freeze-drying and rehydration, therefore these conditions (incubation in trehalose medium between 6 and 9 hours at 37° C.) can be used for loading erythrocytic cells.

erythrocytic cells [2] = assay: as above; type: cell-based; details: 800 mM trehalose, 100 mOsm ADSOL, 6.6 mM Na-phosphate; 38-41° C., 6 hours
human erythrocytic cells = assay: Trehalose uptake by erythrocytic cells (anthrone assay, HPLC); type: cell-based
Description: FIG. 5 graphically illustrates the loading efficiency of trehalose into human erythrocytic cells as a function of external trehalose concentration at respective temperatures of 4° C. and 37° C. Erythrocytic cells were exposed to trehalose for 18 hours at either 4° C. or 37° C. The trehalose concentration in the incubation medium varied between 230 mM and 1000 mM. Each incubation buffer contained trehalose (between 230 mM and 1000 mM) and 100 mOsm PBS pH 7.2. Increase in the trehalose concentration in the loading medium results in an increase in the sugar uptake, reaching about 100 mM cytoplasmic trehalose in erythrocytes incubated in 1000 mM trehalose and 100 mOsm PBS. At 4° C., the uptake was very limited, being about 25 mM. The trehalose intake was measured using anthrone assay and confirmed by high performance liquid chromatography. It is clear that there was substantial loading at 37° C., but not at 4° C. Furthermore, trehalose loading was not significant unless the extracellular cellular trehalose concentration gives a hyperosmotic pressure.
FIG. 7 graphically illustrates trehalose uptake (i.e., intracellular trehalose mM) and hemolysis (i.e., % hemolysis) as a function of incubation temperature (° C.). The incubation temperature was varied between 4° C. and 37° C. […] Between 4° C. and 30° C., the cytoplasmic trehalose was very low (between 1 and 4 mM).
100 mOsm ADSOL contains 24 mM glucose, 0.43 mM adenine, 33.3 mM NaCl and 8.9 mM mannitol. Four different temperatures of incubation were used: 4° C., 23° C., 37° C. and 41° C. […] At 23° C., the uptake was higher than at 4° C. and increased with increase of the time of incubation reaching 22 mM intracellular trehalose. At 37° C., the highest uptake of trehalose by the erythrocytic cells was observed within 16 hours (60 mM). At 41° C., the uptake was slightly higher than that observed at 37° C. within 6 hours.

[3] = about 37° C., about nine(9) hours

OC[C@H]1O[C@H](O[C@H]2O[C@H](CO)[C@@H](O)[C@H](O)[C@H]2O)[C@H](O)[C@@H](O)[C@@H]1O [trehalose]
platelet morphology (platelets; 4 hours incubation at 37° C., 25 mM external trehalose): No morphological changes | platelet morphology (platelets; 4 hours incubation in 75 mM trehalose): swollen | relative proportion of microvesicle gated cells (platelets; after 4 hours incubation): less than 3% | percent hemolysis (erythrocytic cells [1]; 23° C., 6 hours): 7% | percent hemolysis (erythrocytic cells [1]; 23° C., nine(9) hours): about 7% | percent hemolysis (erythrocytic cells [1]; 37° C., nine(9) hours): about 12% | hemolysis (%) to incubation (hours) hemolysis gradient (erythrocytic cells [1]; about 23° C.): about 0.38 | hemolysis (%) to incubation (hours) hemolysis gradient (erythrocytic cells [1]; [3]): about 0.25 | percent hemolysis of trehalose-loaded cells (erythrocytic cells [1]; loaded in 700 mM trehalose/100 mOsm PBS 35° C. 16 hours, start of incubation in 300 mOsm PBS pH 7.2): about 7% | percent hemolysis of trehalose-loaded cells (erythrocytic cells [1]; loaded in 700 mM trehalose/100 mOsm PBS, 7 hours in 300 mOsm PBS pH 7.2): about 25% | percent hemolysis of trehalose-loaded cells (erythrocytic cells [1]; loaded in 700 mM trehalose/100 mOsm PBS, 25 hours in 300 mOsm PBS pH 7.2): about 30% | percent hemolysis of trehalose-loaded cells (erythrocytic cells [1]; storage medium 300 mM trehalose in 100 mOsm PBS, over the course of 3 hours): about 4% | extent of hemolysis during loading (erythrocytic cells [2]): about 17% | intracellular trehalose (human erythrocytic cells; 800 mM trehalose, 100 mOsm ADSOL, 6.6 mM K-phosphate, 4° C., 16 hours): 10 mM | intracellular trehalose (human erythrocytic cells; 800 mM trehalose, 100 mOsm ADSOL, 6.6 mM K-phosphate, 23° C.): 22 mM | intracellular trehalose (human erythrocytic cells; 800 mM trehalose, 100 mOsm ADSOL, 6.6 mM K-phosphate, 37° C., within 16 hours): 60 mM | cytoplasmic trehalose (human erythrocytic cells; 800 mM trehalose, 100 mOsm ADSOL, 6.6 mM K-phosphate, nine(9) hours at 4° C.): about 10 mM | cytoplasmic trehalose (human erythrocytic cells; 800 mM trehalose, 100 mOsm ADSOL, 6.6 mM K-phosphate, nine(9) hours at 23° C.): about 22 mM | cytoplasmic trehalose (human erythrocytic cells; 800 mM trehalose, 100 mOsm ADSOL, 6.6 mM K-phosphate, nine(9) hours at 37° C.): about 60 mM | cytoplasmic trehalose (human erythrocytic cells; 6 hours in 800 mM trehalose in 100 mOsm PBS pH 7.2, 37° C.): up to 35 mM | cytoplasmic trehalose uptake (human erythrocytic cells; 18 hours, 4° C.): about 25 mM | cytoplasmic trehalose (human erythrocytic cells; 18 hours, 37° C., 1000 mM trehalose and 100 mOsm PBS): about 100 mM | trehalose (mM) to incubation (hours) loading gradient (human erythrocytic cells; about 23° C.): about 0.75 | trehalose (mM) to incubation (hours) loading gradient (human erythrocytic cells; [3]): about 1.25 | intracellular trehalose (human erythrocytic cells; loaded in 400 mM trehalose in 100 mOsm PBS at 35° C. for 16 hours): 3 mM | intracellular trehalose (human erythrocytic cells; loaded in 800 mM trehalose in 100 mOsm PBS at 35° C. for 16 hours): 60 mM | trehalose left in the cells after freeze-drying (human erythrocytic cells; loaded in 800 mM trehalose/100 mOsm PBS 16 hours about 35° C., washed, freeze-dried): about 75 mM
